Reference: article PMC11467761 (RSC Medicinal Chemistry, 2024)

Key:
[1] = test system: human induced pluripotent stem cell (iPSC)-derived cardiomyocytes, iCell Cardiomyocytes2; assay: Cardiac safety assay, Ca2+ oscillation in iPSC-derived cardiomyocytes; conditions: 60 minutes, n = 3
[2] = test system: Caco-2 cell monolayers; assay: Caco-2 cell permeability; type: in vitro ADME, human; conditions: polarized Caco-2 cell monolayers

SMILES | Effect on pulse waveforms and beat intervals (Ca2+ oscillation) ([1]; 0.2 μM) | Effect on pulse waveforms and beat intervals (Ca2+ oscillation) ([1]; 2 μM) | Effect on pulse waveforms and beat intervals (Ca2+ oscillation) ([1]; 20 μM) | Caco-2 cell permeability Class [2]
O=C(C1CCCCC1)N1CON2CCc3ccccc3C2C1 (centres unmarked) [Compound 4] | did not affect the pulse waveforms and beat intervals | the pulse waveforms remained unchanged, but a slight shortening of beat intervals was observed for up to 30 minutes post-addition | did not alter the pulse waveforms, but resulted in shortened beat intervals | High
O=C(C1CCCCC1)N1CC(=O)N2CCc3ccccc3C2C1 (centres unmarked) [PZQ, praziquantel, reference compound] | – | – | – | High
